For one assay, the system named is MCF7. Nature of the assay: Cytotoxicity against human MCF7 cells by MTT assay. The format is functional, cell-based.
The next assay has as its system HT-29. Nature of the assay: Cytotoxicity against human HT-29 cells by MTT assay. The format is functional, cell-based.
The subject of a further assay is Hep 3B2. Nature of the assay: (§1) Cytotoxicity against human Hep3B cells by MTT assay. The format is functional, cell-based.
The nature of assay [1]: as §1. The format is functional, cell-based, Hep 3B2.

Values after ≈ are worked out from the molar mass of the structure shown. Active and inactive are the calls of the source. The rule behind the calls is not given here.

Turning to `C=C(C)CC[C@@H](CC=C(C)C)[C@@H](C(=C)C)[C@](C)(CC=C(C)C)C(=O)c1cccc(O)c1`, the outcome in the assay on MCF7, in the assay on HT-29 and in the assay with Hep 3B2 was inactive.

Turning to `O=c1[nH]cc(F)c(=O)[nH]1` [FLUOROURACIL], the IC50 with MCF7 amounted to 0.0012 µg/mL (≈ 0.00923 µM); in assay [1] it was 0.072 µg/mL (≈ 0.554 µM). Moreover, the IC60 in the assay with HT-29 is 0.074 µg/mL (≈ 0.569 µM).

`C=C(C)CC[C@@H](C[C@@H]1C[C@]2(CC=C(C)C)C(=O)[C@@](C(=O)c3ccc(O)c(O)c3)(C(=O)C3=C2O[C@@H](C(C)(C)O)C3)C1(C)C)C(=C)C` [GARCINIELLIPTONE FB]: the IC50 with MCF7 is 6.8 µg/mL (≈ 11 µM); with HT-29 it was 11.2 µg/mL (≈ 18.1 µM); in assay [1] it was 6.3 µg/mL (≈ 10.2 µM).

These data come from ChEMBL document CHEMBL1141761, “Constituents of the pericarp of Garcinia subelliptica” (J Nat Prod, 2005).
